Counter-ions that a name gives are not always drawn.
How the values were obtained:
[1] = molecular target: human SOS1 (nucleotide exchange of K-Ras^G12C) (Homo sapiens, UniProt Q07889); assay: Biochemical assay 2: K-Ras^G12C activation assay by hSOS1 at high GTP concentration (HTRF); conditions: high GTP; read-out: Assay 2 (KRAS-Activation by SOS high GTP) activity expressed as IC50
[2] = molecular target: human SOS1 (loading of human K-Ras^G12C-GDP with fluorescent GTP-analog) (Homo sapiens, UniProt Q07889); assay: Biochemical assay 3: K-Ras^G12C activation assay by hSOS1 (HTRF); conditions: no GTP; read-out: Assay 3 (KRAS-Activation by SOS no GTP) activity expressed as IC50

Compound | IC50 [1] | IC50 [2]
COc1cc2nc(C)nc(NC(C)c3ccc(-c4ccccc4CNCC(F)(F)F)s3)c2cc1OC (stereo not drawn) [Example 300, 6,7-di methoxy-2-methyl-N-{1-[5-(2-{[(2,2,2-trifluoroethyl)amino]methyl}phenyl)thiophen-2-yl]ethyl}quinazolin-4-amine] | 3070 nM | 5080 nM
COc1cc2nc(C)nc(NC(C)c3ccc(-c4ccccc4CNc4ccccn4)s3)c2cc1OC (stereo not drawn) [Example 301, 6,7-di methoxy-2-methyl-N-[1-(5-{2-[(pyridin-2-ylamino)methyl]phenyl}thiophen-2-yl)ethyl]quinazolin-4-amine] | 931 nM | 1930 nM
COc1cc2nc(C)nc(NC(C)c3ccc(-c4ccccc4CNc4cc[nH]n4)s3)c2cc1OC (stereo not drawn) [Example 302, 6,7-dimethoxy-2-methyl-N-[1-(5-{2-[(1H-pyrazol-3-ylamino)methyl]phenyl}thiophen-2-yl)ethyl]quinazolin-4-amine] | 1260 nM | 1540 nM
COc1cc2nc(C)nc(NC(C)c3ccc(-c4ccccc4CNCC(=O)N4CCc5ccccc5C4)s3)c2cc1OC (stereo not drawn) [Example 303, 1-(3,4-dihydroisoquinolin-2(1H)-yl)-2-{[2-(5-{1-[(6,7-dimethoxy-2-methylquinazolin-4-yl)amino]ethyl}thiophen-2-yl)benzyl]amino}ethanone] | 840 nM | 880 nM
COc1cc2nc(C)nc(NC(C)c3ccc(-c4ccc(F)cc4CNCc4nccn4C)s3)c2cc1OC (stereo not drawn) [Example 304, N-[1-{5-[4-fluoro-2-({[(1-methyl-1H-imidazol-2-yl)methyl]amino}methyl)phenyl]thiophen-2-yl}ethyl]-6,7-dimethoxy-2-methylquinazolin-4-amine] | 469 nM | 399 nM
COc1cc2nc(C)nc(NC(C)c3ccc(-c4ccccc4CN4CCNCC4)s3)c2cc1OC (stereo not drawn) [Example 305, 6,7-dimethoxy-2-methyl-N-[1-{5-[2-(piperazin-1-ylmethyl)phenyl]thiophen-2-yl}ethyl]quinazolin-4-amine hydrochloride] | 55.2 nM | 58.4 nM
COc1cc2nc(C)nc(NC(C)c3ccc(-c4ccc(F)cc4CNC(C)=O)s3)c2cc1OC (stereo not drawn) [Example 307, N-[2-(5-{1-[(6,7-dimethoxy-2-methylquinazolin-4-yl)amino]ethyl}thiophen-2-yl)-5-fluorobenzyl]acetamide] | 593 nM | 780 nM
COc1cc2nc(C)nc(NC(C)c3ccc(-c4ccccc4CN4CCN(C)CC4)s3)c2cc1OC (stereo not drawn) [Example 308, 6,7-dimethoxy-2-methyl-N-[1-(5-{2-[(4-methylpiperazin-1-yl)methyl]phenyl}thiophen-2-yl)ethyl]quinazolin-4-amine] | 229 nM | 220 nM
COc1cc2nc(C)nc(NC(C)c3ccc(-c4ccccc4CN[C@H]4CCN(C)C4=O)s3)c2cc1OC (stereo partly drawn) [Example 309, (3S)-{[2-(5-{1-[(6,7-dimethoxy-2-methylquinazolin-4-yl)amino]ethyl}thiophen-2-yl)benzyl]amino}-1-methylpyrrolidin-2-one] | 690 nM | 880 nM
COc1cc2nc(C)nc(NC(C)c3ccc(-c4ccc(F)cc4CNC(=O)c4cc[nH]n4)s3)c2cc1OC (stereo not drawn) [Example 310, N-[2-(5-{1-[(6,7-dimethoxy-2-methylquinazolin-4-yl)amino]ethyl}thiophen-2-yl)-5-fluorobenzyl]-1H-pyrazole-3-carboxamide] | 1340 nM | 5760 nM
COc1cc2nc(C)nc(NC(C)c3ccc(-c4ccccc4CN4CCOCC4)s3)c2cc1OC (stereo not drawn) [Example 311, 6,7-dimethoxy-2-methyl-N-[1-{5-[2-(morpholin-4-ylmethyl)phenyl]thiophen-2-yl}ethyl]quinazolin-4-amine] | 513 nM | 629 nM
COc1cc2nc(C)nc(NC(C)c3ccc(-c4ccccc4CN4CC(O)C4)s3)c2cc1OC (stereo not drawn) [Example 312, 1-[2-(5-{1-[(6,7-dimethoxy-2-methylquinazolin-4-yl)amino]ethyl}thiophen-2-yl)benzyl]azetidin-3-ol] | 66.5 nM | 73.2 nM

— patent publication US20240083857A1, “2-Methyl-Quinazolines” (Bayer Pharma Aktiengesellschaft, priority 2017, published 2024)
